Test results reported in BindingDB's records for PubMed 11408545 (Glaxosmithkline, 2001).
Several values for one entry are separate records, joined by “and”; a condition that tells them apart may be missing. Identical values can stand only once.

What was measured:
[1] = biological target: T1, Alpha-2B adrenergic receptor (Oryctolagus cuniculus, UniProt O77830)
T1 sequence (O77830 whole entry): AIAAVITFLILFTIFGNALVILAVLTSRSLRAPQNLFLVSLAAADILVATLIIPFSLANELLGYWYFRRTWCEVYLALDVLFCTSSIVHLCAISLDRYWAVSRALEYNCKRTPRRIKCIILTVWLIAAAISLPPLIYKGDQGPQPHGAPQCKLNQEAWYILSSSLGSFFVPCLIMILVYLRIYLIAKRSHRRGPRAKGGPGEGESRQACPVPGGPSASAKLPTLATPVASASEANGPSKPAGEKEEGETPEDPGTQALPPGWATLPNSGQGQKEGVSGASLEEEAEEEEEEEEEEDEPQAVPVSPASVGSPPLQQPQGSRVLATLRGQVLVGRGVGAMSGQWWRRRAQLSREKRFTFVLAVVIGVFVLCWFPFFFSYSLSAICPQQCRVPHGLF

[2] = biological target: T2, Alpha-2A adrenergic receptor (Homo sapiens, UniProt P08913)
T2 sequence (P08913 whole entry): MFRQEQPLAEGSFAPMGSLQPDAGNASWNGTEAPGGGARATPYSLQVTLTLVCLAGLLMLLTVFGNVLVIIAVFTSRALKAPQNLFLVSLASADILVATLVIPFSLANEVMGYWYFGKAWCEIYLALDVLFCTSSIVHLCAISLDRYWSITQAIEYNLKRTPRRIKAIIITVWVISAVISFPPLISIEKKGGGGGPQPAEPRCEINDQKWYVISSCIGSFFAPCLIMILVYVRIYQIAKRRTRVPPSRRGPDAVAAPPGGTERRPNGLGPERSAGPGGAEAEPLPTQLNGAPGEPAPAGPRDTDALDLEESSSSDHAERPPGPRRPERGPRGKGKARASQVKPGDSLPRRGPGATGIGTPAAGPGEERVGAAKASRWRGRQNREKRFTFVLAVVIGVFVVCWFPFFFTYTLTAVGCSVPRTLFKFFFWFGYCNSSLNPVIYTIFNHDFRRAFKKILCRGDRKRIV

[3] = biological target: T3, Alpha-2A adrenergic receptor [16-465] (Rattus norvegicus, UniProt P22909)
T3 construct: 16-465
T3 sequence (P22909 whole entry): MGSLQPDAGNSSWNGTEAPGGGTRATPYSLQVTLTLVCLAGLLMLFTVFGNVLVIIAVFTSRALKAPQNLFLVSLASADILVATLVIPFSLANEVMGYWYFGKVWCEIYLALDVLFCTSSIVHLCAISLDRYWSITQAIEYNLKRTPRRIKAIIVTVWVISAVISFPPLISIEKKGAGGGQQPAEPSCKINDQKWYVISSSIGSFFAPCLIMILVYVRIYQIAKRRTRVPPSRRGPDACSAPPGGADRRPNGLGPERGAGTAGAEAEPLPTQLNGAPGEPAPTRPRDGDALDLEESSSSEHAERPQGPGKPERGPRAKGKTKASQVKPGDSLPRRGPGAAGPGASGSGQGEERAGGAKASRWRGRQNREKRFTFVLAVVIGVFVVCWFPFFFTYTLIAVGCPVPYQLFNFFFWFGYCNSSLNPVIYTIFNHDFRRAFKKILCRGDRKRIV

Ki [1] | Ki [3] [nM] | SMILES | Ki [2] [nM]
> 10000 nM | 484 | COc1ccccc1N1CCN(CCC2C(=O)c3ccccc3C(C)(C)C2=O)CC1 (stereo not given) [NSC_122211] | 373
2690 nM and 3130 nM |  | CN(C)CCCN1c2ccccc2Sc2ccc(Cl)cc21 [[3-(2-Chloro-phenothiazin-10-yl)-propyl]-dimethyl-amine(Chlorpromazine)] | 
> 10000 nM |  | COc1cc2nc(N3CCN(C(=O)c4ccco4)CC3)nc(N)c2cc1OC [[3H]-Minipress] | 
24.1 nM and 18.4 nM |  | Cc1ccc(N(CC2=NCCN2)c2cccc(O)c2)cc1 [SMR000059054] | 
7.3 nM and 6.4 nM | 0.95 | COC1(C2=NCCN2)COc2ccccc2O1 (stereo not given) [RX821002] | 
376 nM and 429 nM | 1470 | COC(=O)C1=COC(C)C2CN3CCc4c([nH]c5ccccc45)C3CC12 (stereo not given) [Ajmalicine] | 47.6
5.3 nM and 11.8 nM | 142 | COc1cccc(OC)c1OCCNCC1Oc2ccccc2OC1c1ccccc1 (stereo not given) [NSC_185453] | 3.5

The next lines start with the compound.

SMILES | Ki [1] | Ki [3] [nM] | Ki [2] [nM]
Cc1cc(C(C)(C)C)c(O)c(C)c1CC1=NCCN1 [SMR000059324] | 6.3 nM and 4.5 nM |  | 
CN1C[C@H](Cn2ccnc2-c2ccccc2)C[C@@H]2c3cccc4[nH]c(Br)c(c34)C[C@H]21 [BAM-1303] | 95.3 nM and 46 nM | 313 | 18.1
O=C1NCN(c2ccccc2)C12CCN(CC1COc3ccccc3O1)CC2 (stereo not given) [8-(2,3-Dihydro-benzo[1,4]dioxin-2-ylmethyl)-1-phenyl-1,3,8-triaza-spiro[4.5]decan-4-one] | 169 nM and 129 nM | 92 | 28.3
CC(C)=CCOc1ccc(Cl)c2c1CCN(C)CC2 [SK&F-104078] | 292 nM and 191 nM | 244 | 30.4
NCC(O)c1ccc(O)c(O)c1 (stereo not drawn) [Noradrenaline,(+)] | 284 nM and 57 nM |  | 
